Measured values taken from PMC9032561, “Simultaneous Inhibitory Effects of All-Trans Astaxanthin on Acetylcholinesterase and Oxidative Stress” (Marine Drugs, 2022).
pIC50: −log10 of the molar value.

Target: T1, acetylcholinesterase (Electrophorus electricus, UniProt O42275)
T1 construct: gene ache
Test: Ellman assay with Lineweaver-Burk kinetics; supported by fluorescence quenching and circular dichroism
Assay type: biochemical

T1 sequence (O42275 24-633): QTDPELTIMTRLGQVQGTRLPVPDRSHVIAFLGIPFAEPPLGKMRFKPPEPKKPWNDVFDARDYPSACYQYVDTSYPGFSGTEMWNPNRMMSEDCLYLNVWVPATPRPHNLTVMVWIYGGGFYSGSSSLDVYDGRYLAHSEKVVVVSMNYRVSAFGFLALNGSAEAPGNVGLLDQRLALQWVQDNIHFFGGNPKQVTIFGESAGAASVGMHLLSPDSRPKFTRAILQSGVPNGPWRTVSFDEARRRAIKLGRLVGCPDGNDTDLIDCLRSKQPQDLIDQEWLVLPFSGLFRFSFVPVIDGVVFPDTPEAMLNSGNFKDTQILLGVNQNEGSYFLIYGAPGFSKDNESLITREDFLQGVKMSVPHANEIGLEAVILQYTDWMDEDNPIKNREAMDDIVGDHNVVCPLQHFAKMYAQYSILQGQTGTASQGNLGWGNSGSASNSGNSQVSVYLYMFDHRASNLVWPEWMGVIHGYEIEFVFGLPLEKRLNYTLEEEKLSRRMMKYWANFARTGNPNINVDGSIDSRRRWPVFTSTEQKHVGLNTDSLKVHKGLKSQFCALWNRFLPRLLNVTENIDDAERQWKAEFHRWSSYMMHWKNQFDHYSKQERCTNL

SMILES: CC1=C(/C=C/C(C)=C/C=C/C(C)=C/C=C/C=C(C)/C=C/C=C(C)/C=C/C2=C(C)C(=O)[C@@H](O)CC2(C)C)C(C)(C)C[C@H](O)C1=O [all-trans astaxanthin]
- pIC50: 5.06
